In patent publication US20120108665A1, “METHODS AND COMPOSITIONS FOR TREATING OPHTHALMIC CONDITIONS” (REVISION THERAPEUTICS, INC., priority 2009, published 2012):

What was measured:
RAGE = RAGE immunoreactivity in retina tissue sections of Ins2Akita/+ mice; assay type: in vivo, mouse; settings: HPR diet 0.1% w/w, 3 months (FIG. 2)
Method: (§1) Ins2Akita littermates (aged 2-5 months) were divided into two groups. One group received a specialized rodent diet containing HPR (0.1%, w/w). The second group received a rodent chow which was not supplemented with HPR. Mice ingested these diets ad libitum for 3 months (except where indicated). Serum retinol and glucose levels were regularly monitored throughout the treatment period. At the end of the treatment period, the mice were euthanized and eyecups were prepared for biochemical and immunohistochemical analyses.
(§2) Panels A and D are from Ins2Akita/+ mice fed the control diet. Panels B and E are from Ins2/Akita/+ mice fed the HPR-supplemented diet. Panels C and E are from age-matched wild-type mice. Arrows in panels A and D show disruption of the GCL and RAGE immunoreactivity.

phosphorylated p38 MAPK = assay: Phosphorylated p38 MAPK immunoreactivity in RPE of Ins2Akita/+ mice; assay type: in vivo, mouse; settings: HPR diet 0.1% w/w, 3 months (FIG. 4)
Method: as §1
Tissue sections from these mice were probed for phosphorylated p38 MAPK, a mediator of apoptotic cell death.

ganglion cell layer = assay: Retinal histology (toludine blue staining) of ganglion cell layer in Ins2Akita/+ mice; assay type: in vivo, mouse; settings: HPR diet 0.1% w/w
Method: as §1, §2

wild type Balb/c mice = assay: In vivo corneal micropocket assay (bFGF pellets); design: species or system mouse; settings: 0.1% (w/w) HPR chow 8 weeks, bFGF ~80 ng/pellet, assessed 5 days later, FITC-dextran (FIG. 7)
From the text: (§3) We set out to directly test the angiogenic properties of HPR in three different models of ocular angiogenesis. In the first, we induced angiogenesis in vitro by exposing primary human retinal microvascular endothelial cells to growth factors in the tube formation assay. Second, we utilized slow release pellets containing growth factor to induce angiogenesis in the corneal micropocket assay. Next, we looked at the effect of HPR treatment on angiogenesis in a transgenic animal model of early-onset retinal neovascularization, the very-low-density lipoprotein receptor (VLDLR) knockout mouse (vldlr−/−).
At the end of this period, standardized slow release pellets containing bFGF (˜80 ng/pellet) were surgically inserted into the normally avascular corneas of the mice in the study. Blank pellets were implanted in the left eye. Vessel formation was assessed 5 days later when the mice were perfused with FITC-dextran and the eyes were enucleated and photographed. FIG. 7: Bright field (A-F) and fluorescence (G-L) images showing vessel growth (arrows) and the approximate location of the pellets (ovals).

Ins2Akita/+ mice = assay: Serum glucose (hyperglycemia) monitoring in Ins2Akita/+ diabetic mice fed HPR-supplemented diet; assay type: in vivo, mouse; settings: diet containing HPR 0.1% w/w ad libitum, glucose at 7-day intervals (FIG. 1B)
Method: as §1
(§4) Serum levels of retinol at day 30 (panel A) and glucose at 7-day intervals (panel B) are shown. The dashed line in panel B indicates mean glucose levels in wild-type mice.

VLDLR-/- knockout mice = assay: Retinal vascular leakage in VLDLR-/- knockout mice (retinal neovascularization model); assay type: in vivo, mouse; settings: 0.1% HPR (w/w) chow 8 weeks, retinal flat mounts after FITC-dextran perfusion (FIG. 8)
From the text: as §3
VLDLR^−/− mice were fed either control or 0.1% HPR (w/w)-supplemented chow ad libitum for 8 weeks. The extent of retinal leakage was then assessed in retinal flat mounts after FITC-dextran perfusion.

VEGF = VEGF expression in retina of Ins2Akita/+ mice; assay type: in vivo, mouse; settings: HPR diet 0.1% w/w, 3 months (FIG. 5)
Method: as §1

[1] = tested on: advanced glycation end products (AGEs); assay: AGE immunoreactivity in retina tissue sections of Ins2Akita/+ mice; assay type: in vivo, mouse; settings: HPR diet 0.1% w/w, 3 months (FIG. 3)
Method: as §1

serum RBP-retinol = assay: Serum retinol monitoring in Ins2Akita/+ diabetic mice fed HPR-supplemented diet; assay type: in vivo, mouse; settings: diet containing HPR 0.1% w/w ad libitum, retinol at day 30 (FIG. 1A)
Method: as §1, §4

[2] = tested on: primary human retinal microvascular endothelial cells; assay: In vitro capillary tube formation assay; assay type: cell-based; settings: HPR 10 mM; VEGF 10 ng/ml pretreatment; cells on Cultrex BME in 0.1% FBS (FIG. 6)
From the text: as §3
In parallel experiments, cells were pretreated with VEGF (10 ng/ml) and HPR ([…]) respectively. The cells were then plated in 0.1% FBS or 0.1% FBS-[…] HPR.

In the case of CC1=C(/C=C/C(C)=C/C=C/C(C)=C/C(=O)Nc2ccc(O)cc2)C(C)(C)CCC1 [HPR, N-(4-hydroxyphenyl)retinamide], the “RAGE immunoreactivity in the GCL” value (RAGE) is reported as “very little”, the “p38 MAPK immunoreactivity in the RPE” value (phosphorylated p38 MAPK) is reported as “barely detectable” and the “preservation of ganglion cell layer and inner nuclear layer” value (ganglion cell layer; 3 months (FIG. 5)) is reported as “remarkable preservation”. For the same compound, the “integrity of the ganglion cell layer (GCL)” value (ganglion cell layer; 3 months, toludine blue staining (FIG. 2)) was “well preserved”, the “bFGF-induced corneal vessel growth (angiogenic response)” value (wild type Balb/c mice) was “striking reduction” and the “effect on hyperglycemia (serum glucose)” value (Ins2Akita/+ mice) was “has no effect”. For the same compound, the “extent of retinal vascular leakage” value (VLDLR-/- knockout mice) was “significant reduction”, the “VEGF expression in all retina sublayers” value (VEGF) was “dramatically reduced” and the “AGE immunoreactivity in the retina” value [1] was “significantly reduced”. For the same compound, the “serum RBP-retinol” value (serum RBP-retinol) was “significantly reduces” and the tube formation [2] was “reduced”.
